This series has as its system K562 CRISPRi cells. The series is described as follows: Perturb-seq pooled growth measurement (sgRNA counts, growth phenotype γ, relative activity). The format is cell-based, human. The following applies: sequencing read counts; for Perturb-seq pooled growth sgRNA counts, d5: 5 days of growth (day seven after transduction); for Perturb-seq pooled growth sgRNA counts, d10: 10 days of growth (day twelve after transduction); for Perturb-seq pooled growth sgRNA counts, T0: T0 = day two after transduction. A digest of the protocol: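 CRISPRi K562 cells from the Perturb-seq transduced pool; 500,000-cell samples taken days two, seven and twelve post-transduction. sgRNA amplicons from genomic DNA sequenced; growth phenotypes from normalized sgRNA abundances at days seven and twelve versus day two. Relative activity assigned from day seven (five days' growth).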

On to “HSPE1_+_198365089.23-P1P2_02: sgRNA targeting HSPE1, GGAGACTGGCAGTCCGGCCC, SEQ ID NO: 67 (listed as DNA, chemistry not fully specified)”, for which the “Perturb-seq pooled growth sgRNA counts, d5” value stood at 5731; the “Perturb-seq pooled growth sgRNA counts, d10” value was 4437; the “Perturb-seq pooled growth sgRNA counts, T0” value was 7969.
The matching figures for “HSPE1_+_198365089.23-P1P2_03: sgRNA targeting HSPE1, GGTGACTCGCAGTCCGGCCC, SEQ ID NO: 66 (listed as DNA, chemistry not fully specified)”: 3034, 2279 and 7473.
The matching figures for “HSPE1_+_198365089.23-P1P2_14: sgRNA targeting HSPE1, GGAGACTCGCAGTCCTGCCC, SEQ ID NO: 68 (listed as DNA, chemistry not fully specified)”: 6501, 6498 and 4808.
For the substance “MTOR_+_11322547.23-P1P2_00: sgRNA targeting MTOR, GGGCAGGGGGCCTGAAGCGG, SEQ ID NO: 146 (listed as DNA, chemistry not fully specified)”, the “Perturb-seq pooled growth sgRNA counts, d5” value is reported as 6328; the “Perturb-seq pooled growth sgRNA counts, d10” value was found to be 3144; the “Perturb-seq pooled growth sgRNA counts, T0” value worked out at 17632.
The matching figures for “MTOR_+_11322547.23-P1P2_05: sgRNA targeting MTOR, GGGCAGGGGGCTTGAAGCGG, SEQ ID NO: 148 (listed as DNA, chemistry not fully specified)”: 4083, 3324 and 5595.
For “MTOR_+_11322547.23-P1P2_06: sgRNA targeting MTOR, GGGCAGGGGGGCTGAAGCGG, SEQ ID NO: 149 (listed as DNA, chemistry not fully specified)”, the “Perturb-seq pooled growth sgRNA counts, d5” value was 3358; the “Perturb-seq pooled growth sgRNA counts, d10” value is listed as 3174; the “Perturb-seq pooled growth sgRNA counts, T0” value stood at 4142.
For “MTOR_+_11322547.23-P1P2_07: sgRNA targeting MTOR, GGGCAGGGGGTCTGAAGCGG, SEQ ID NO: 147 (listed as DNA, chemistry not fully specified)” the same measures were 3183, 1899 and 6761.
The matching figures for “MTOR_+_11322547.23-P1P2_10: sgRNA targeting MTOR, GGGCAGGGGGCCTGAAGCAG, SEQ ID NO: 150 (listed as DNA, chemistry not fully specified)”: 7332, 7827 and 7076.
As to “POLR1D_+_28196016.23-P1_00: sgRNA targeting POLR1D, GGGAAGCAAGGACCGACCGA, SEQ ID NO: 11 (listed as DNA, chemistry not fully specified)”, the “Perturb-seq pooled growth sgRNA counts, d5” value was 3429; the “Perturb-seq pooled growth sgRNA counts, d10” value was found to be 1496; the “Perturb-seq pooled growth sgRNA counts, T0” value came out at 11671.
For “POLR1D_+_28196016.23-P1_01: sgRNA targeting POLR1D, GGGAAGCCAGGACCGACCGA, SEQ ID NO: 76 (listed as DNA, chemistry not fully specified)” the same measures were 4460, 2528 and 12679.
As for “POLR1D_+_28196016.23-P1_03: sgRNA targeting POLR1D, GGTAAGCAAGGACCGACCGA, SEQ ID NO: 75 (listed as DNA, chemistry not fully specified)”, the “Perturb-seq pooled growth sgRNA counts, d5” value is on record as 2365; the “Perturb-seq pooled growth sgRNA counts, d10” value was found to be 933; the “Perturb-seq pooled growth sgRNA counts, T0” value came out at 10266.
The matching figures for “POLR1D_+_28196016.23-P1_07: sgRNA targeting POLR1D, GGGAAGCAAGGAGCGACCGA, SEQ ID NO: 77 (listed as DNA, chemistry not fully specified)”: 16283, 16285 and 15589.
With “POLR1D_+_28196016.23-P1_08: sgRNA targeting POLR1D, GGGAAGCAGGGACCGACCGA, SEQ ID NO: 74 (listed as DNA, chemistry not fully specified)”, the “Perturb-seq pooled growth sgRNA counts, d5” value is on record as 4205; the “Perturb-seq pooled growth sgRNA counts, d10” value turned out to be 1986; the “Perturb-seq pooled growth sgRNA counts, T0” value is on record as 16414.
Regarding “POLR2H_+_184081251.23-P1P2_00: sgRNA targeting POLR2H, GGGGCCACGAGAGCAGCAGA, SEQ ID NO: 28 (listed as DNA, chemistry not fully specified)”, the “Perturb-seq pooled growth sgRNA counts, d5” value is 947; the “Perturb-seq pooled growth sgRNA counts, d10” value is 1103; the “Perturb-seq pooled growth sgRNA counts, T0” value stood at 9498.
Consider “POLR2H_+_184081251.23-P1P2_07: sgRNA targeting POLR2H, GGGGCCACGAGTGCAGCAGA, SEQ ID NO: 118 (listed as DNA, chemistry not fully specified)”, for which the “Perturb-seq pooled growth sgRNA counts, d5” value stood at 6381; the “Perturb-seq pooled growth sgRNA counts, d10” value is reported as 8153; the “Perturb-seq pooled growth sgRNA counts, T0” value is on record as 4472.
The matching figures for “POLR2H_+_184081251.23-P1P2_08: sgRNA targeting POLR2H, GGGGCCACGCGAGCAGCAGA, SEQ ID NO: 116 (listed as DNA, chemistry not fully specified)”: 3492, 3869 and 6134.
For “POLR2H_+_184081251.23-P1P2_11: sgRNA targeting POLR2H, GGGGCCACGAGAGCAGCGGA, SEQ ID NO: 115 (listed as DNA, chemistry not fully specified)” the same measures were 898, 1144 and 5900.
Consider “POLR2H_+_184081251.23-P1P2_12: sgRNA targeting POLR2H, GGGGCCACGAGAGCAGGAGA, SEQ ID NO: 117 (listed as DNA, chemistry not fully specified)”, for which the “Perturb-seq pooled growth sgRNA counts, d5” value amounted to 4854; the “Perturb-seq pooled growth sgRNA counts, d10” value worked out at 5996; the “Perturb-seq pooled growth sgRNA counts, T0” value amounted to 5334.
The matching figures for “RAN_+_131356438.23-P1P2_00: sgRNA targeting RAN, GGCGGTCGCTGCGCTTAGGG, SEQ ID NO: 69 (listed as DNA, chemistry not fully specified)”: 7598, 8936 and 5444.
The matching figures for “RAN_+_131356438.23-P1P2_02: sgRNA targeting RAN, GGCGGCCGCTGCGCTTAGGG, SEQ ID NO: 70 (listed as DNA, chemistry not fully specified)”: 15046, 15358 and 11853.
For “RAN_+_131356438.23-P1P2_03: sgRNA targeting RAN, GGGGGTCGCTGCGCTTAGGG, SEQ ID NO: 71 (listed as DNA, chemistry not fully specified)” the same measures were 6698, 6816 and 5056.
For “RAN_+_131356438.23-P1P2_04: sgRNA targeting RAN, GGCGGTCGCGGCGCTTAGGG, SEQ ID NO: 72 (listed as DNA, chemistry not fully specified)”, the “Perturb-seq pooled growth sgRNA counts, d5” value was 11409; the “Perturb-seq pooled growth sgRNA counts, d10” value is on record as 14870; the “Perturb-seq pooled growth sgRNA counts, T0” value was 6001.
Take “RAN_+_131356438.23-P1P2_12: sgRNA targeting RAN, GGCGGTCGCTGCGCTTAGGT, SEQ ID NO: 73 (listed as DNA, chemistry not fully specified)”: the “Perturb-seq pooled growth sgRNA counts, d5” value is recorded as 16172; the “Perturb-seq pooled growth sgRNA counts, d10” value was found to be 25349; the “Perturb-seq pooled growth sgRNA counts, T0” value was 7627.
Turning to “RPL9_+_39460483.23-P1P2_00: sgRNA targeting RPL9, GGATGTTTCTGTGCTCGTGG, SEQ ID NO: 5 (listed as DNA, chemistry not fully specified)”, the “Perturb-seq pooled growth sgRNA counts, d5” value was found to be 1141; the “Perturb-seq pooled growth sgRNA counts, d10” value is reported as 1014; the “Perturb-seq pooled growth sgRNA counts, T0” value turned out to be 10355.
Consider “RPL9_+_39460483.23-P1P2_01: sgRNA targeting RPL9, GGATGATTCTGTGCTCGTGG, SEQ ID NO: 51 (listed as DNA, chemistry not fully specified)”, for which the “Perturb-seq pooled growth sgRNA counts, d5” value is reported as 1108; the “Perturb-seq pooled growth sgRNA counts, d10” value is 1238; the “Perturb-seq pooled growth sgRNA counts, T0” value is on record as 4886.
The matching figures for “RPL9_+_39460483.23-P1P2_04: sgRNA targeting RPL9, GGATGTTTCAGTGCTCGTGG, SEQ ID NO: 53 (listed as DNA, chemistry not fully specified)”: 3975, 4118 and 5237.

Source of the values: patent publication US20220259593A1, “CONTROL OF MAMMALIAN GENE DOSAGE USING CRISPR” (The Regents of the University of California, priority 2019, published 2022).
